Data taken from US20160367497A1, “METHODS AND COMPOSITIONS FOR TREATING NEUROPATHIES” (Washington University, priority 2007, published 2016).

How the values were obtained:
[1] = test system: Nrk2; assay: NAD synthesis enzyme mRNA in rotenone-treated DRG neurons (qRT-PCR); format: cell-based, rat; settings: 0.1 μM and 1 μM, 24 hours
Description: FIG. 6A-B illustrates expression analysis of NAD biosynthetic enzymes in mammal showing (A) NAD biosynthesis enzyme mRNA levels after 1, 3, 7, and 14 days after nerve transection in rat DRG were determined by qRT-PCR in which the expression level was normalized to glyceraldehydes-3-phosphate dehydrogenase expression in each sample and is indicated relative to the expression level in non-axotomized DRG; (B) neurite degeneration introduced by incubation DRG in 1 or 0.1 μM rotenone for indicated time and NAD synthesis enzyme mRNA levels were determined by qRT-PCR as described in the text.
Real-time quantitative reverse transcription-PCR analysis. All the surgical procedures were performed according to National Institute of Health guidelines for care and use of laboratory animals at Washington University. […] Quantitative reverse transcription (RT)-PCR was performed by monitoring in real-time the increase in fluorescence of the SYBR-GREEN dye on a TaqMan 7700 Sequence Detection System (Applied Biosystems).
To investigate the expression of mammalian NAD biosynthetic enzymes in the nervous system, we performed quantitative RT-PCR using RNA from mouse brain, retina, spinal code, and DRG at age of E14, P0, P7, P14 and P21. […] We also analyzed expression of NAD synthetic enzymes during the axonal degeneration caused by neurotoxin in cultured rat DRG neuron. […]

[2] = test system: AMPK; assay: AMPK phosphorylation in Neuro2a cells (phospho-specific western blot); format: cell-based; settings: resveratrol 10 μM or AICAR 1 mM; 2 h up to 72 h
Description: (§1) FIG. 10A-D illustrates resveratrol activation of AMP kinase in Neuro2a cells. Neuro2a cells were switched to serum-starvation medium (medium containing 0.2% FCS) and treated with DMSO (vehicle control), resveratrol (10 μM) or 5-aminoimidazole-4-carboxamide-1-β-D-ribofuranoside (AICAR) (1 mM). […] Very low levels of phosphorylated AMPK and ACC were detected in DMSO treated control cells at all time points tested. (C) Densitometric analysis of changes in phosphorylated AMPK and (D) phosphorylated ACC under different conditions is shown.
(§2) Cell culture and Reagents. Neuro2 cells obtained from ATCC were grown in MEM with 1.5 g/L sodium bicarbonate, 0.1 mM nonessential amino acids, 0.1 mM sodium pyruvate, 2 mM L-glutamine with 10% FCS. For differentiation, cells were switched to serum-starvation medium (containing 0.2% FCS). For neurite outgrowth measurements, experiments were done in quadruplicate and 100 neurites per well were randomly measured using the Metamorph software. Dorsal root ganglia sensory and cortical neurons were established from E13.5 mouse embryos, maintained in neurobasal medium supplemented with B27 (and NGF for DRG neurons) and infected with lentiviruses as described (Araki et al., 2004, Science 305:1010-1013; Hawley et al., 2005, Cell Metab 2:21-23). Resveratrol was a gift from Sirtris Pharmaceuticals (Cambridge Mass.) and AICAR was obtained from Toronto Research (North York, Canada). Splitomycin and Compound C were purchased from Biomol (Plymouth Meeting, Pa.) and Calbiochem (San Diego, Calif.). Sirtinol and nicotinamide were purchased from Sigma (Saint Louis, Mo.)
Plasmids and viruses. The dominant negative (dnAMPK) and constitutively active (caAMPK) plasmids were gifts from Russell Jones (University of Pennsylvania, Philadelphia Pa.), and pCXN-Cre was a gift of Inder Verma (Salk Institute, San Diego, Calif.). All constructs were subcloned into the lentiviral shuttle vector FCIV and verified by nucleotide sequence analysis. Viruses were prepared as previously described (Araki et al., 2004, Science 305:1010-1013). Protein and mRNA analysis. Immunoprecipitations and western blot analysis were performed by standard methods using antibodies directed against total AMPK, phosphorylated AMPK, total ACC or phosphorylated ACC that were obtained from Cell Signaling Technology (Beverley, Mass.). The phospho-AMPK antibody detects endogenous AMPK α1 and α2 when phosphorylated at threonine 172. The LKB1 antibody was purchased from Upstate (Lake Placid, N.Y.). Quantitative RT-PCR analysis was performed using Sybr-Green methodology on a model 7700 instrument (Applied Biosystems) as previously described (Araki et al., 2004, Science 305:1010-1013). Primer sequences were those used in previous studies (Motoshima, et al., 2006, J Physiol 574:63-71).
To explore the role of polyphenols, in particular, of resveratrol, we tested whether resveratrol altered the activity of AMPK in neuronal cells. Neuro2a neuroblastoma cells were treated with resveratrol (10 μM) and AMPK activation was examined using phospho-AMPK specific antibodies. […] To confirm that AMPK activation by resveratrol results in typical AMPK-mediated downstream responses, we monitored phosphorylation of ACC (acetyl Co-A carboxylase), a primary target of activated AMPK. […] To examine a potential mechanism of resveratrol-mediated AMPK activation, we measured cellular ATP levels as a decreased ATP:AMP ratio increases the phosphorylation of AMPK. ATP levels were monitored using a luciferase-based assay in neuro2A cells treated with resveratrol or Oligomycin, an inhibitor of mitochondrial oxidative phosphorylation and therefore ATP production. While the ATP concentration dropped from 5.874 μM in DMSO-treated cells (control) to 0.976 μM in Oligomycin treated cells within 2 hr, the ATP concentration in resveratrol-treated Neuro2a cells was not altered from control either at 2 hr (6.33 μM) or 24 hr (6.42 μM).

[3] = test system: neuro2A cells; assay: neurite outgrowth in Neuro2a cells; format: cell-based; settings: 0.2% FCS; resveratrol 10 μM or AICAR 1 mM
Description: FIG. 11A-D illustrates the resveratrol and AICAR stimulation of neurite outgrowth in Neuro2a cells. Neuro2a cells were switched to serum-starvation medium (medium containing 0.2% FCS) and treated with DMSO (vehicle control), resveratrol (10 μM) or AICAR (1 mM). (A) Serum deprivation of Neuro2a cells results in growth of short neurites that increase in length over 72 h. (B) Resveratrol induced rapid neurite outgrowth resulting in elaborate neurite network formation by 48 h. (C) AICAR stimulated extensive neurite outgrowth similar to that observed with resveratrol. (D).
FIG. 12A-M illustrates the dependency of resveratrol-induced neurite outgrowth and mitochondrial biogenesis on AMPK. Neuro2a cells were infected with lentivirus expressing GFP only (FUGW, control), dominant negative AMPK (dnAMPK) or constitutively active AMPK (caAMPK). Three days later cells were shifted to serum-starvation medium containing DMSO (control) or resveratrol (10 μM). In addition, uninfected Neuro2a cells in serum-starvation medium were treated with resveratrol alone, the AMPK inhibitor Compound C (CC, Biomol International L.P. (Plymouth Meeting, Pa.)) (10 μM) alone or with resveratrol and CC together. Images of the cultures captured in bright field and green fluorescence were overlaid to visualize neurite outgrowth. […] Neurite length in cells treated with caAMPK+resveratrol is also shown (G). […] Values were normalized to the 18S transcript. Data shown is representative of two independent experiments.
as §2
(§3) Neuro2a cells are a widely used as in vitro model of neuronal differentiation. These cells cease to proliferate and begin to differentiate, as evidenced by neurite outgrowth, in response to serum starvation, retinoic acid, or growth factors like neurotrophins and GDNF family ligands. […] Neuro2a cells grown under serum starvation conditions (0.2% fetal calf serum) were treated with AICAR (1 mM) or resveratrol (10 μM).
Since resveratrol activated AMPK and altered the differentiation of Neuro2a cells, we next asked whether AMPK activity was required for resveratrol-induced neurite outgrowth. To address this issue, we infected Neuro2a cells with lentivirus expressing either GFP alone (FUGW-control) or dominant negative AMPK (dnAMPK). After 3 days growth to allow robust lentiviral transgene expression, the medium was replaced with serum starvation medium. […] Resveratrol-induced neurite outgrowth was reduced in the presence of the AMPK pharmacological inhibitor Compound C (CC 10 μM) further supporting the importance of AMPK activity for resveratrol-induced neurite outgrowth.

[4] = test system: acetyl Co-A carboxylase (ACC); assay: ACC phosphorylation in Neuro2a cells (phospho-specific western blot); format: cell-based; settings: resveratrol 10 μM or AICAR 1 mM; all time points to 72 hr
Description: as §1
Plasmids and viruses. […] Quantitative RT-PCR analysis was performed using Sybr-Green methodology on a model 7700 instrument (Applied Biosystems) as previously described (Araki et al., 2004, Science 305:1010-1013). […]
To explore the role of polyphenols, in particular, of resveratrol, we tested whether resveratrol altered the activity of AMPK in neuronal cells. […] To confirm that AMPK activation by resveratrol results in typical AMPK-mediated downstream responses, we monitored phosphorylation of ACC (acetyl Co-A carboxylase), a primary target of activated AMPK. […] To examine a potential mechanism of resveratrol-mediated AMPK activation, we measured cellular ATP levels as a decreased ATP:AMP ratio increases the phosphorylation of AMPK. […]

[5] = test system: DRG neurons; assay: axonal injury of DRG neurons after hypoxia and reoxygenation; format: cell-based; settings: preincubation 45 min or lentiviral expression; 0.1% O2 8 or 16 hrs, 20 hrs reoxygenation
Description: FIG. 18 illustrates that activation of AMPK protects axons while inhibition of AMPK function enhances axonal injury during oxygen deprivation.
To examine whether AMPK activation prior to hypoxic stress protects axons from injury, either constitutively active AMPK (CaAMPK) was expressed in DRG neurons, or neurons were preincubated with the AMPK activator AICAR for 45 min prior to hypoxia. […] Thus, treatments that increase AMPK activity (e.g. resveratrol, AICAR) can block the axonal damage and are neuroprotective.

[6] = test system: neuro2A cells; assay: survival of Neuro2A cells in nutrient-deprived conditions; format: cell-based; settings: regardless of the FCS concentration (10% or 0.2%)
Description: When Neuro2A cells are grown in culture in presence of 10% FCS, cells proliferate and ultimately die if cells are not passaged. If grown in the presence of 0.2% FCS, neuro2A cells differentiate and project neurites but ultimately die within one week.

[7] = test system: neuro2A cells; assay: Neuro2a cell proliferation, Ki67 immunocytochemistry; format: cell-based; settings: 0.2% fetal calf serum; AICAR 1 mM or resveratrol 10 μM; 24 h after plating; DMSO controls 50%
Description: as §3

## C=C(C)[C@H]1Cc2c(ccc3c2O[C@@H]2COc4cc(OC)c(OC)cc4[C@@H]2C3=O)O1 [rotenone]
[1]
  increase in expression of Nrk2: more than 6 folds

## NC(=O)c1ncn([C@@H]2O[C@H](CO)[C@@H](O)[C@H]2O)c1N [AICAR, 5-aminoimidazole-4-carboxamide-1-β-D-ribofuranoside, reference compound]
[2]
  AMPK phosphorylation: stimulated AMPK phosphorylation
[3]
  neurite outgrowth compared to serum starvation alone: increased neurite outgrowth
[4]
  ACC phosphorylation: promoted increased phosphorylation
[5]
  axonal injury (axonal beading) after hypoxia: significantly reduced axonal injury after hypoxia
[6]
  cell survival: resistant to death for a prolonged period of time
[7]
  proliferating cells (Ki67): 12.8%
